From US10781158B2, “Methods of protecting an organ using tetrahydrocurcumin and phosphatidylcholine” (Bhupinder Singh, priority 2014, dated 2020)
Values joined by “and” are separate entries in the source; they are usually repeats but may differ in a detail not shown here. Equal values may be shown once.

Columns and labels:
5/6 nephrectomy rats [1] = assay: Tail blood pressure measurement in 5/6 nephrectomy CKD rats; format: in vivo, Sprague-Dawley rats; parameters: Diastolic tail BP: unit not given here
Source text: (§1) For induction of CKD via nephron mass reduction, Sprague-Dawley rats underwent partial left nephrectomy followed by total right nephrectomy one week later. CKD rats were then randomized to 1% THC diet with polyenylphosphatidylcholine (PPC, 3 g/1000 kcal) vs. regular chow. […] Tail blood pressure measurement and 24-hour urine collection were done within a week of study termination. After 9 weeks on special diet, blood and kidneys were collected for biochemical and histologic analyses.
Rats were induced to have chronic kidney disease via nephron mass reduction, Sprague-Dawley rats underwent partial left nephrectomy followed by total right nephrectomy one week later. CKD rats were then randomized to 1% THC diet with polyenylphosphatidylcholine (PPC, 3 g/1000 kcal) vs. regular chow. The rats were then administered a dose of Buprenex, a narcotic, that can cause kidney damage.
(§2) After inducing chronic kidney disease, the rats were then treated with a pharmaceutical formulation comprising tetrahydrocurcumin, or with a pharmaceutical formulation that had both tetrahydrocurcumin and curcumin. The control group consisted of five rats, ([…]), the rats with CKD (rat number 4, 15, 20, 23, 25, 31), rats with chronic kidney disease treated with tetrahydrocurcumin (rat number 8, 11, 12, 14, 19, 21, 18 and 27) and rats treated with a combination of tetrahydrocurcumin and curcumin (rat number 1, 2, 16, 24, 28, 7, 17, 29 and 30). The measurements for the average BUN, blood pressure, body weight, delta BUN, Hgb, and Heart weight/body weight for the four groups are shown in FIGS. 2A-2G.

5/6 nephrectomy rats [2] = assay: Blood urea nitrogen (BUN), creatinine and creatinine clearance blood tests (kidney function) in CKD rats; format: in vivo, Sprague-Dawley rats; parameters: Change in BUN: unit not given here
Source text: as §1
(§3) After 24 hours the rats were analyzed for proteinuria, Galectin-3, and C-reactive protein. Galectin-3 is a marker for cardiac fibrosis, and C-reactive protein is correlated with inflammation. Furthermore, a blood urea nitrogen test (BUN) was carried out with a creatinine and creatinine clearance blood test to evaluate the kidney functions and to look for nephrotoxicity.
The blood urea nitrogen test (BUN) is primarily used with the creatinine test to evaluate kidney function and to help diagnose kidney disease. […] Therefore the pharmaceutical formulations comprising tetrahydrocurcumin with or without curcumin can be used to treat hypertension.

5/6 nephrectomy rats [3] = assay: Proteinuria, 24-hour urine collection (total protein, urine protein/creatinine) in CKD rats; format: in vivo, Sprague-Dawley rats
Source text: as §1, §3

5/6 nephrectomy rats [4] = assay: Plasma C-reactive protein (CRP, inflammation) in CKD rats; format: in vivo, Sprague-Dawley rats
Source text: as §1, §3

5/6 nephrectomy rats [5] = assay: Galectin-3 (marker for cardiac fibrosis) in CKD rats; format: in vivo, Sprague-Dawley rats
Method: as §3

5/6 nephrectomy rats [6] = assay: Heart weight normalized to body weight (cardiac hypertrophy) in CKD rats; format: in vivo, Sprague-Dawley rats
Method: (§4) The experimental groups included healthy controls, CTL n=5, non-treated CKD, n=6 and CKD/THC n=6. At time of randomization to regular chow vs. THC diet, average blood urea nitrogen (BUN) was similar between the CKD groups (63.5+10.5 vs. 66+16.5 mg/dL).
as §2

5/6 nephrectomy rats [7] = assay: Kidney fibrosis, image quantitative analysis of Trichrome stained kidney slides in CKD rats; format: in vivo, Sprague-Dawley rats; settings: for Kidney slides Trichrome stain, Relative % area fibrosis: Table 10, relative to CTL Ave 1
Source text: as §1, §4

[8] = previously shown; cited from earlier work
[9] = at acidic and at physiological pH; cited from earlier work
[10] = high dosages; cited from earlier work
[11] = Table 1, CKD/THC group n = 6, 1% THC diet with PPC, 9 weeks, mean ± S.D.
[12] = group AVE, CKD rats treated with THC
[13] = Table 1, CKD/THC group n = 6, mean ± S.D.
[14] = Table 4, group AVE (THC 8 rats, THC/curcumin 9 rats)
[15] = Table 7, individual CKD rats, incl. rats 22 and 26
[16] = individual rats (Rat#), CKD rats treated with THC

In the case of `COc1cc(CCC(=O)CC(=O)CCc2ccc(O)c(OC)c2)ccc1O` [THC, tetrahydrocurcumin], the Diastolic blood pressure (5/6 nephrectomy rats [1]; [11]) is reported as 75.8 ± 12.8 mmHg, the Systolic blood pressure (5/6 nephrectomy rats [1]; [11]) is reported as 116.5 ± 11.1 mmHg and the “Diastolic tail BP” value (5/6 nephrectomy rats [1]; Table 5, group AVE) is reported as 76.3. For the same molecule, the “Systolic tail BP” value (5/6 nephrectomy rats [1]; Table 5, group AVE) was 117.4 mmHg, the “Diastolic tail BP” value (5/6 nephrectomy rats [1]; Table 5, individual CKD rats) was 95 and 69 and 60 and 78 and 81 and 67 and 77 and 83 and the “Systolic tail BP” value (5/6 nephrectomy rats [1]; Table 5, individual CKD rats) was 132 mmHg and 103 mmHg and 124 mmHg (2×) and 116 mmHg and 113 mmHg and 106 mmHg and 121 mmHg. The “Diastolic tail BP” value (5/6 nephrectomy rats [1]; [12]) was 75.8, the “Diastolic tail BP” value (5/6 nephrectomy rats [1]; individual rats (Rat#), 5/6 nephrectomy CKD rats treated with THC) was 95 and 69 and 60 and 81 and 67 and 83 and the “BUN lower at termination compared to the non-treated CKD group” value (5/6 nephrectomy rats [2]; CKD/THC group, 1% THC diet with PPC, 9 weeks, significantly lower) was “about 40%”. The BUN at termination (5/6 nephrectomy rats [2]; [13]) was 52.1 ± 19.1 mg/dL, the Plasma creatinine (5/6 nephrectomy rats [2]; [13]) was 1.04 ± 0.22 mg/dL and the “Terminal BUN” value (5/6 nephrectomy rats [2]; Table 3, individual CKD rats) was 44.9 mg/dL and 60.3 mg/dL and 80.6 mg/dL and 107.7 mg/dL and 69.9 mg/dL and 32.1 mg/dL and 32.6 mg/dL and 201.8 mg/dL and 62.3 mg/dL. The “Terminal Cr” value (5/6 nephrectomy rats [2]; Table 3, individual CKD rats) was 0.76 mg/dL and 1.28 mg/dL and 1.25 mg/dL and 1.48 mg/dL and 1.19 mg/dL and 1.13 mg/dL and 1.01 mg/dL and 2.30 mg/dL and 0.81 mg/dL, the CrCL (5/6 nephrectomy rats [2]; Table 3, individual CKD rats, creatinine clearance) was 0.223 L/h/kg and 0.114 L/h/kg and 0.154 L/h/kg and 0.136 L/h/kg and 0.208 L/h/kg and 0.175 L/h/kg and the “Change in BUN” value (5/6 nephrectomy rats [2]; [14]) was −6.0. For the same molecule, the “Terminal BUN” value (5/6 nephrectomy rats [2]; [14]) was 61.3 mg/dL, the “Terminal BUN” value (5/6 nephrectomy rats [2]; Table 4, individual CKD rats) was 44.9 mg/dL and 60.3 mg/dL and 80.6 mg/dL and 107.7 mg/dL and 32.1 mg/dL and 32.6 mg/dL and 69.9 mg/dL and 62.3 mg/dL and the “Change in BUN” value (5/6 nephrectomy rats [2]; Table 4, individual CKD rats, terminal minus randomization) was −13.6 and −6.2 and −15.9 and 31.6 and −28.7 and −14.7 and 3.4 and −4.3. The CrCL (5/6 nephrectomy rats [2]; Table 6, group AVE) was 0.168 L/h/kg, the “Terminal Cr” value (5/6 nephrectomy rats [2]; Table 6, group AVE) was 1.11 mg/dL and the “Terminal Cr” value (5/6 nephrectomy rats [2]; Table 6, individual CKD rats) was 0.76 mg/dL and 1.28 mg/dL and 1.25 mg/dL and 1.48 mg/dL and 1.13 mg/dL and 1.01 mg/dL and 1.19 mg/dL and 0.81 mg/dL. For the same molecule, the CrCL (5/6 nephrectomy rats [2]; Table 6, individual CKD rats, creatinine clearance) was 0.223 L/h/kg and 0.114 L/h/kg and 0.154 L/h/kg and 0.136 L/h/kg and 0.208 L/h/kg and 0.175 L/h/kg, the “Terminal BUN” value (5/6 nephrectomy rats [2]; [15]) was 44.9 mg/dL and 60.3 mg/dL and 80.6 mg/dL and 107.7 mg/dL and 69.9 mg/dL and 32.1 mg/dL and 32.6 mg/dL and 201.8 mg/dL and 62.3 mg/dL and the “Terminal Cr” value (5/6 nephrectomy rats [2]; [15]) was 0.8 mg/dL (2×) and 1.3 mg/dL and 1.2 mg/dL (2×) and 1.5 mg/dL and 1.1 mg/dL and 1.0 mg/dL and 2.3 mg/dL. For the same molecule, the “Change in BUN” value (5/6 nephrectomy rats [2]; Table 8, group AVE of 6 rats) was −13.9, the “Terminal BUN” value (5/6 nephrectomy rats [2]; Table 8, group AVE of 6 rats) was 52.1 mg/dL and the “Change in BUN” value (5/6 nephrectomy rats [2]; Table 8, individual CKD rats) was −13.6 and −6.2 and −15.9 and −28.7 and −14.7 and −4.3. For the same molecule, the “Terminal BUN” value (5/6 nephrectomy rats [2]; Table 8, individual CKD rats) was 44.9 mg/dL and 60.3 mg/dL and 80.6 mg/dL and 32.1 mg/dL and 32.6 mg/dL and 62.3 mg/dL, the CrCL (5/6 nephrectomy rats [2]; [12]) was 0.175 L/h/kg and the “Terminal sCr” value (5/6 nephrectomy rats [2]; [12]) was 1.04 mg/dL. The CrCL (5/6 nephrectomy rats [2]; [16]) was 0.223 L/h/kg and 0.114 L/h/kg and 0.154 L/h/kg and 0.208 L/h/kg and 0.175 L/h/kg, the “Proteinuria decreased compared to non-treated CKD animals” value (5/6 nephrectomy rats [3]; CKD/THC group, significantly decreased) was about 50% and the Urine protein/creatinine (5/6 nephrectomy rats [3]; [13]) was 47.91 ± 15.42 mg/g. The “24 hr total proteinuria” value (5/6 nephrectomy rats [3]; Table 3, individual CKD rats) was 638.5 mg and 612.7 mg and 355.6 mg and 537.7 mg and 613.8 mg and 410.1 mg, the Uprot/Cr ratio (5/6 nephrectomy rats [3]; Table 3, individual CKD rats) was 63.18 mg/g and 64.86 mg/g and 30.56 mg/g and 46.32 mg/g and 43.50 mg/g and 37.43 mg/g and the “24 hr total proteinuria” value (5/6 nephrectomy rats [3]; Table 5, group AVE) was 528.07 mg. For the same molecule, the “24 hr total proteinuria” value (5/6 nephrectomy rats [3]; Table 5, individual CKD rats) was 638.50 mg and 612.75 mg and 355.61 mg and 537.69 mg and 613.82 mg and 410.08 mg, the “24 hr total proteinuria” value (5/6 nephrectomy rats [3]; [12]) was 526.15 mg and the Uprot/Cr ratio (5/6 nephrectomy rats [3]; [12]) was 47.91 mg/g. For the same molecule, the “24 hr total proteinuria” value (5/6 nephrectomy rats [3]; [16]) was 638.50 mg and 612.75 mg and 355.61 mg and 613.82 mg and 410.08 mg, the Uprot/Cr ratio (5/6 nephrectomy rats [3]; [16]) was 63.18 mg/g and 64.86 mg/g and 30.56 mg/g and 43.50 mg/g and 37.43 mg/g and the CRP (5/6 nephrectomy rats [4]; Table 3, individual CKD rats) was 2.53 mg/mL and 3.22 mg/mL and 2.15 mg/mL and 4.38 mg/mL and 2.70 mg/mL and 3.43 mg/mL and 2.36 mg/mL and 1.19 mg/mL and 2.57 mg/mL. The CRP (5/6 nephrectomy rats [4]; Table 6, group AVE) was 2.92 mg/mL, the CRP (5/6 nephrectomy rats [4]; Table 6, individual CKD rats) was 2.53 mg/mL and 3.22 mg/mL and 2.15 mg/mL and 4.38 mg/mL and 3.43 mg/mL and 2.36 mg/mL and 2.70 mg/mL and 2.57 mg/mL and the CRP (5/6 nephrectomy rats [4]; [12]) was 2.71 mg/mL. The CRP (5/6 nephrectomy rats [4]; [16]) was 2.53 mg/mL and 3.22 mg/mL and 2.15 mg/mL and 3.43 mg/mL and 2.36 mg/mL and 2.57 mg/mL, the Galectin-3 (5/6 nephrectomy rats [5]; Table 3, individual CKD rats) was 285.96 ng/mL and 450.48 ng/mL and 436.37 ng/mL and 768.79 ng/mL and 273.14 ng/mL and 182.38 ng/mL and the Galectin-3 (5/6 nephrectomy rats [5]; Table 6, group AVE) was 442.95 ng/mL. For the same molecule, the Galectin-3 (5/6 nephrectomy rats [5]; Table 6, individual CKD rats) was 285.96 ng/mL and 450.48 ng/mL and 436.37 ng/mL and 768.79 ng/mL and 273.14 ng/mL, the Galectin-3 (5/6 nephrectomy rats [5]; [12]) was 390.94 ng/mL and the Galectin-3 (5/6 nephrectomy rats [5]; [16]) was 285.96 ng/mL and 450.48 ng/mL and 436.37 ng/mL. For the same molecule, the “Heart wet weight normalized to body weight” value (5/6 nephrectomy rats [6]; [13]) was 3.89 ± 0.61 g/kg, the Heart wt (5/6 nephrectomy rats [6]; [14]) was 1.068 g and the Heart wt/body wt (5/6 nephrectomy rats [6]; [14]) was 4.16 g/kg. For the same molecule, the Heart wt (5/6 nephrectomy rats [6]; Table 4, individual CKD rats) was 1.169 g and 0.972 g and 1.165 g and 1.035 g and 0.854 g and 0.830 g and 1.530 g and 0.989 g, the Heart wt/body wt (5/6 nephrectomy rats [6]; Table 4, individual CKD rats) was 4.68 g/kg and 3.61 g/kg and 4.59 g/kg and 4.33 g/kg and 3.42 g/kg and 3.22 g/kg and 5.63 g/kg and 3.80 g/kg and the Heart wt (5/6 nephrectomy rats [6]; Table 8, group AVE of 6 rats) was 0.997 g. For the same molecule, the Heart wt/body wt (5/6 nephrectomy rats [6]; Table 8, group AVE of 6 rats) was 3.89 g/kg, the Heart wt (5/6 nephrectomy rats [6]; Table 8, individual CKD rats) was 1.169 g and 0.972 g and 1.165 g and 0.854 g and 0.830 g and 0.989 g and the Heart wt/body wt (5/6 nephrectomy rats [6]; Table 8, individual CKD rats) was 4.68 g/kg and 3.61 g/kg and 4.59 g/kg and 3.42 g/kg and 3.22 g/kg and 3.80 g/kg. The “Kidney fibrosis from Trichrome stained slides: relative % area” value (5/6 nephrectomy rats [7]; Table 1, CKD/THC group n = 6, mean ± S.D., CTL = 1) was 1.16 ± 0.24 relative % area, the “Kidney slides Trichrome stain, Relative % area fibrosis” value (5/6 nephrectomy rats [7]; group Ave) was 1.1551 and the “Kidney slides Trichrome stain, Relative % area fibrosis” value (5/6 nephrectomy rats [7]; individual kidneys) was 1.396 and 1.321 and 1.345 and 0.8958 and 1.146 and 0.8269. For the same molecule, the “Increase of plasma levels on co-administration with a lipid carrier such as PPC” value [8] was 5 fold, the “Solubility in water” value [9] was “poor solubility” and the “Dosage at which relatively safe” value [10] was 80 mgs/kg body weight.
